Article PMC12669040, “Tumour-specific STING agonist synthesis via a two-component prodrug system” (Nature Chemistry, 2025)
Where “and” joins values, the source holds several entries; their conditions need not be identical. Equal values may be shown once. Read-outs that look alike come from different tables or passages of the source.

Legend:
[1] = Colorimetric alkylation rate constant assay with TNB^2− as non-specific thiol; format: physicochemical; design: second-order: unit not given here; settings: [B]0 = 250, Replicates 1-3
[2] = Colorimetric alkylation rate constant assay with thiol N1; format: physicochemical
[3] = Competition assay: N1–E4 dimerization in the presence of competitors C1–6 (HPLC); format: physicochemical; settings: equimolar E4, competitor and N1, 50 μM each
THP-1 Lucia ISG cells = assay: β-Glucuronidase-specific STING activation, cytokine secretion assays; format: cell-based, human; settings: 25 μM each, with β-glucuronidase 250 units ml^−1, 24 h
Protocol: THP-1 Lucia ISG cells were maintained as described above. On the day of the experiment, cells were pelleted (150g, 10 min) and resuspended in the growth medium (40% conditioned) at a density of 1 × 10^6 cells ml^−1. […] The supernatants were collected, aliquoted and frozen at −20 °C for future analysis. […] Data were analysed by two-tailed Welch’s t-test (GraphPad Prism).

[4] = LC-MS analysis of the N1–E4 reaction in the presence of glutathione; format: physicochemical; settings: 50 μM N1 + 50 μM E4, 1 mM glutathione, pH 7.0, 37 °C, 2 h
Protocol: Extended Data Fig. 5 LC-MS analysis of the reaction between N1 and E4 in the presence of glutathione (1 mM). N1 (50 μM) and E4 (50 μM) were reacted at neutral pH (25 mM HEPES pH 7.0, 150 mM NaCl) and in the presence of reduced glutathione (1 mM). The reaction mixture was incubated at 37 °C for 2 h. No glutathione-adduct of E4 was identified. TEXT PRINTED IN THE PICTURE: no label printed: exact mass: 340.04 | no label printed: exact mass: 618.05

E. coli β-glucuronidase = E. coli β-glucuronidase (Escherichia coli, UniProt P05804); settings: pH 6.8
Sequence of E. coli β-glucuronidase (P05804 whole entry): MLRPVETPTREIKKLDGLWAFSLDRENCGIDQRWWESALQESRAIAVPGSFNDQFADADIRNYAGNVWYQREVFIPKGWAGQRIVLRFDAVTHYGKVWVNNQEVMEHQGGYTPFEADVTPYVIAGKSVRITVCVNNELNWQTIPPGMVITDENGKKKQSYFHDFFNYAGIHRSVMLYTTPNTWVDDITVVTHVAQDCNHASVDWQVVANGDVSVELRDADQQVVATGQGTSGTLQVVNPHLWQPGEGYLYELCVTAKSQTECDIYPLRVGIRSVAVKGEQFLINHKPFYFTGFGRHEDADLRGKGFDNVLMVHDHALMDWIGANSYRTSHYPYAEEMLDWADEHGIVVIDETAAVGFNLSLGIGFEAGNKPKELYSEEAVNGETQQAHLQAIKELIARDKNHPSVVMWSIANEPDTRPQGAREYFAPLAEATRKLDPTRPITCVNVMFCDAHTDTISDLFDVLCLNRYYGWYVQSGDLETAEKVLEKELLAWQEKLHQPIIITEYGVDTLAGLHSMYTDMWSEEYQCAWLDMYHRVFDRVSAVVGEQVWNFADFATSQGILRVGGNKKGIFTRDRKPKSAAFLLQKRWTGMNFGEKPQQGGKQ

CT26mβGUS tumours [5] = settings: mouse, in vivo
THP-1 cells = assay: Dilution limits of N1/E4 combination to activate THP-1 cells (IFN-β ELISA); settings: IFN-β secretion, 6 h, single component
[6] = Stability test in human plasma; format: in vitro ADME; settings: 48 h, 37 °C
Protocol: Extended Data Fig. 6 Stability test of β-GlcA-N1 (1 mM) in human plasma. At the indicated time point, an 80 µL aliquot was loaded onto an Agilent Bond Elut solid phase extraction column (C18, 3 mL bed volume). The collected eluent was lyophilized, redissolved in a 50% (v/v) acetonitrile in water (0.1% v/v formic acid), and analyzed by LC-MS. TEXT PRINTED IN THE PICTURE: β-GlcA-N1: integration value: 91206 (t = 0 hr, human plasma); integration value: 84431 (t = 48 hr, 37 °C, human plasma) | no label printed: exact mass: 502.06 | no label printed: exact mass: 309.02 DOUBTS OF THE COPYIST ABOUT THIS PICTURE: The name β-GlcA-N1 is printed only at the peak in the upper chromatogram. The lower chromatogram's integration value (84431) is assigned to it as the same peak. / The two drawn structures have no printed label. Their exact masses are given with an empty substance label.

human β-glucuronidase = biological target: T1, human β-glucuronidase (Homo sapiens, UniProt P08236); assay: Michaelis–Menten kinetics of β-GlcA-N1 cleavage; format: biochemical; settings: for dilution-corrected deltaN1: replicates 1 and 2
T1 construct: purchased AcroBiosystems BEB-H52H3
T1 sequence (P08236 23-651): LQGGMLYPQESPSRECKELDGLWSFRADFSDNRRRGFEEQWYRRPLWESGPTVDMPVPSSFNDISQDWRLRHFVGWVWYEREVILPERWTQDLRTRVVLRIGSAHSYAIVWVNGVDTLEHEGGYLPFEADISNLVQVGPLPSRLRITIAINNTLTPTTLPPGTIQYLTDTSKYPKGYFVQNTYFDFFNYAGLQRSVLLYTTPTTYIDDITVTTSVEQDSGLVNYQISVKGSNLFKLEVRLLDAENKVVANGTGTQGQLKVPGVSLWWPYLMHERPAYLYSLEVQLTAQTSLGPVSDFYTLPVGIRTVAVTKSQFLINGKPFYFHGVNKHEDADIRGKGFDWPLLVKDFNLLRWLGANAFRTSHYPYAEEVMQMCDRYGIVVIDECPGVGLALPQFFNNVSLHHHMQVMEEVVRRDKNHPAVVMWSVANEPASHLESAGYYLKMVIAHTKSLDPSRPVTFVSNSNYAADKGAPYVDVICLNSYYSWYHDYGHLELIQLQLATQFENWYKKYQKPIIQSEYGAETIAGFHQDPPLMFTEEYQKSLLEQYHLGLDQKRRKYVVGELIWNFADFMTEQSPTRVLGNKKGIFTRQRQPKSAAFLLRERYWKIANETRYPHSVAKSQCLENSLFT
Protocol: Human β-glucuronidase (AcroBiosystems BEB-H52H3) was reconstituted in deionized water to a concentration of 1 mg ml^−1. The enzyme stock solution was further diluted in assay buffer (0.2 M acetate pH 4.5) to 10 μg ml^−1 (134 nM). β-GlcA-N1 (50 mM DMSO stock) was twofold serially diluted in assay buffer from 5 to 0.078 mM. The enzyme solution and diluted β-GlcA-N1 were incubated in a transparent 96-well plate and incubated at 37 °C until thermo equilibrium was reached. Then, 100 µl of β-GlcA-N1 at various concentrations was mixed with 100 µl of β-glucuronidase using a multichannel pipette, resulting in the following initial condition: [β-GlcA-N1] = 2.5, 1.25, 0.62, 0.31, 0.16, 0.08 and 0.04 mM; [β-glucuronidase] = 67 nM; 5% DMSO (v/v). The reactions were incubated at 37 °C. At 30-min and 60-min timepoints, a 50-µl portion was withdrawn from each reaction mixture and mixed with 50 µl of quenching buffer (1 M sodium carbonate, 1 mM TCEP). The concentration of liberated N1 was determined by comparing the absorbance of each quenched reaction at 410 nm to a calibration curve of purified N1. Reaction velocities were calculated from the slopes of [N1] versus time plots. The velocity versus [β-GlcA-N1] plot was then fitted with the standard Michaelis–Menten kinetic model (GraphPad Prism).

MC38 tumours = settings: for Tumor Size: individual mice, * = excluded once a death was recorded in the group
CT26mβGUS tumours [7] = assay: CT26mβGUS syngeneic mouse tumour model; settings: single component alone

SMILES: O=C(CCl)Nc1cc(C(F)(F)F)cc(C(F)(F)F)c1 [Compound C1]
- second-order ([1]; Time 2891 sec): 0.0005428 and 0.0004879 and 0.0005765
- second-order ([1]; Time 3071 sec): 0.0005659 and 0.0004944 and 0.0005968
- second-order ([1]; Time 3252 sec): 0.0005928 and 0.000525 and 0.0006178
- second-order ([1]; Time 3433 sec): 0.0006132 and 0.0005166 and 0.0006465
- second-order ([1]; Time 3613 sec): 0.0006269 and 0.0005419 and 0.0006634
- second-order ([1]; Time 3794 sec): 0.0006518 and 0.0005802 and 0.0006849
- second-order ([1]; Time 3974 sec): 0.0006575 and 0.0005747 and 0.00069
- second-order ([1]; Time 4155 sec): 0.0006878 and 0.0006116 and 0.0007283
- second-order ([1]; Time 4336 sec): 0.0007043 and 0.0006446 and 0.000736
- second-order ([1]; Time 4516 sec): 0.0007158 and 0.0006546 and 0.0007684
- second-order ([1]; Time 4697 sec): 0.0007519 and 0.0006931 and 0.0007736
- second-order ([1]; Time 4878 sec): 0.0007648 and 0.000697 and 0.0008077
- second-order ([1]; Time 5058 sec): 0.000772 and 0.0007238 and 0.0008222
- second-order ([1]; Time 5239 sec): 0.0008041 and 0.000747 and 0.0008434
- second-order ([1]; Time 5419 sec): 0.0008239 and 0.0007489 and 0.0008675
- second-order ([1]; Time 5600 sec): 0.0008471 and 0.0007554 and 0.0008837
- second-order ([1]; Time 5781 sec): 0.0008692 and 0.0007775 and 0.0009026
- second-order ([1]; Time 5961 sec): 0.0008692 and 0.000805 and 0.0009333
- second-order ([2]; Replicate 1, time 576 sec, second-order plot value): 0.007537
- second-order ([2]; Replicate 1, time 606 sec, second-order plot value): 0.007697
- second-order ([2]; Replicate 2, time 576 sec, second-order plot value): 0.007533
- second-order ([2]; Replicate 2, time 606 sec, second-order plot value): 0.00792
- second-order ([2]; Replicate 3, time 576 sec, second-order plot value): 0.007357
- second-order ([2]; Replicate 3, time 606 sec, second-order plot value): 0.007639
- second-order ([2]; time 0 sec, replicates 1-3): 0.001153 and 0.001059 and 0.00116
- second-order ([2]; time 30 sec, replicates 1-3): 0.001608 and 0.001493 and 0.001543
- second-order ([2]; time 60 sec, replicates 1-3): 0.001966 and 0.001867 and 0.001909
- second-order ([2]; time 91 sec, replicates 1-3): 0.002342 and 0.002215 and 0.002258
- second-order ([2]; time 121 sec, replicates 1-3): 0.002679 and 0.002554 and 0.002612
- second-order ([2]; time 151 sec, replicates 1-3): 0.002904 and 0.002968
- second-order ([2]; time 212 sec, replicates 1-3): 0.003712 and 0.003583 and 0.003667
- second-order ([2]; time 242 sec, replicates 1-3): 0.004057 and 0.003913 and 0.004
- second-order ([2]; time 273 sec, replicates 1-3): 0.00439 and 0.004239 and 0.004347
- second-order ([2]; time 303 sec, replicates 1-3): 0.004715 and 0.004571 and 0.004691
- second-order ([2]; time 333 sec, replicates 1-3): 0.005043 and 0.004886 and 0.00503
- second-order ([2]; time 364 sec, replicates 1-3): 0.005369 and 0.005207 and 0.005358
- second-order ([2]; time 394 sec, replicates 1-3): 0.005645 and 0.005521 and 0.005712
- second-order ([2]; time 424 sec, replicates 1-3): 0.005918 and 0.005838 and 0.006051
- second-order ([2]; time 454 sec, replicates 1-3): 0.006191 and 0.006157 and 0.006365
- second-order ([2]; time 485 sec, replicates 1-3): 0.006532 and 0.006449 and 0.006705
- second-order ([2]; time 515 sec, replicates 1-3): 0.006798 and 0.006747 and 0.007019
- second-order ([2]; time 545 sec, replicates 1-3): 0.007139 and 0.00704 and 0.007306
- reduction of the amount of N1–E4 dimer by the competitor [3]: 35%

SMILES: CCSc1cc2cc(C(=O)CCC(=O)O)sc2cc1OC [Compound E4-ctrl]
- secretion of cytokines downstream of STING (interferon-β, CXCL-10, IL-6) (THP-1 Lucia ISG cells): diminished the cytokine inductions

SMILES: COc1cc2sc(C(=O)CCC(=O)O)cc2cc1SCCCl [Compound E4]
- glutathione adduct formation [4]: No glutathione–E4 adduct was detected
- stability in phosphate buffer without added enzyme (E. coli β-glucuronidase): most E4 underwent hydrolysis
- body weight (CT26mβGUS tumours [5]): no significant losses were observed
- concentration up to which no STING activation was shown (alone) (THP-1 cells): > 64 µM

SMILES: COc1cc2sc(C(=O)CCC(=O)O)cc2cc1SCO[C@@H]1O[C@H](C(=O)O)[C@@H](O)[C@H](O)[C@H]1O [β-GlcA-N1]
- fraction remaining intact in human plasma [6]: more than 90%
- kcat (human β-glucuronidase; Vmax / enzyme (6.71141e-8 M)): 0.4762
- dilution-corrected deltaN1 (human β-glucuronidase; substrate conc. 0.0390625 mM): 4.272e-06 mM/s and 3.586e-06 mM/s
- dilution-corrected deltaN1 (human β-glucuronidase; substrate conc. 0.078125 mM): 6.962e-06 mM/s and 7.225e-06 mM/s
- dilution-corrected deltaN1 (human β-glucuronidase; substrate conc. 0.15625 mM): 1.1761e-05 mM/s and 1.16e-05 mM/s
- dilution-corrected deltaN1 (human β-glucuronidase; substrate conc. 0.3125 mM): 1.598e-05 mM/s and 1.529e-05 mM/s
- dilution-corrected deltaN1 (human β-glucuronidase; substrate conc. 0.625 mM): 2.231e-05 mM/s and 1.587e-05 mM/s
- dilution-corrected deltaN1 (human β-glucuronidase; substrate conc. 1.25 mM): 2.547e-05 mM/s and 2.51e-05 mM/s
- dilution-corrected deltaN1 (human β-glucuronidase; substrate conc. 2.5 mM): 3.022e-05 mM/s and 2.88e-05 mM/s
- stability in phosphate buffer without added enzyme (E. coli β-glucuronidase): remained stable
- Tumor Size (MC38 tumours; day 23): 113* mm^3 and 189.9* mm^3
- Tumor Size (MC38 tumours; day 25): 125.8124* mm^3 and 301.5* mm^3
- Tumor Size (MC38 tumours; day 30): 445.0408* mm^3 and 632.5* mm^3
- Tumor Size (MC38 tumours; day 33): 1167* mm^3 and 1562* mm^3
- Survival: Days (MC38 tumours; mouse, in vivo): 17 days and 33 days and 21 days
- Survival: death event (1 denotes a death event) (MC38 tumours; mouse, in vivo): 1
- body weight (CT26mβGUS tumours [7]): no significant losses were observed
